Test results as given in patent US20120238447A1 (priority 2009, published 2012).
Read-outs that look alike come from different tables or passages of the source.

Tests used:
[1] = system: Septoria tritici; assay: Activity against leaf blotch on wheat caused by Septoria tritici (microtiter plate test); assay type: cell-based; details: MTP, 405 nm, 7 days after inoculation, 18° C
[2] = system: Pyricularia oryzae; assay type: cell-based; details: MTP, 405 nm, 7 days after inoculation, 18° C, efficacy from relative growth in %

Question: `COC(=O)N(OC)c1ccccc1COc1ccn(-c2ccc(Cl)cc2)n1` [pyraclostrobin] was tested. Which Observed efficacy ([1]; Pyraclostrobin alone, 0.001 ppm) did it give?
Answer: The Observed efficacy was 7.

Question: What about the Observed efficacy ([2]; pyraclostrobin alone, 0.004 ppm) of the same compound?
Answer: Its Observed efficacy is 23.

Question: Which results are given for `CCOC(=O)CSc1nc(C(C)(C)C)nn1C(=O)N(C)C` [triazamat, triazamate]?
Answer: Observed efficacy ([1]; Triazamat alone, 0.25 ppm): 4; Observed efficacy ([2]; triazamat alone, 1 ppm): 4
